For the data set, the system named is S. typhimurium/E. coli reverse mutation, colony counts. The experiment in a line: Bacterial reverse mutation test (aka Ames test) summary data. Summed up: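 S. typhimurium his⁻ strains (TA97–TA1538) and E. coli WP2 uvrA pKM101 trp⁻, dosed over a range with or without rat, hamster or mouse liver S9. Preincubated 20 min at 37° C (or plate incorporation), plated in agar, incubated usually two days. Revertant colonies counted against negative controls.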

Molecules are shown by their SMILES. Inconclusive results are not listed. Calls of active or inactive are those of the source. How the calls were made is not given here.

For the compound `O=C1C2(Cl)C3(Cl)C4(Cl)C(Cl)(Cl)C5(Cl)C3(Cl)C1(Cl)C5(Cl)C24Cl` (configuration not stated), the outcome was “inactive; negative”.

For the compound `Oc1ccc(Cl)cc1Sc1cc(Cl)ccc1O`, the outcome is “inactive; negative”.

In the case of `C[CH2][Pb]([Cl])([CH2]C)[CH2]C`, the outcome was “inactive; negative”.

`C(=C/c1ccccc1)/c1ccccc1`: the outcome is “inactive; negative”. The value for `COC(=O)C(c1ccccc1)C1CCCCN1` (configuration not stated) was “inactive; negative”; that for `O=C(Cl)c1ccccc1F` was “active; positive”. As for `CCCCC(CC)CN` (configuration not stated), the outcome is “inactive; negative”. In the case of `Nc1cc(Cl)ccc1Cl`, the outcome is “inactive; negative”. For the compound `c1ccc(OP(Oc2ccccc2)Oc2ccccc2)cc1`, the outcome was “inactive; negative”. Turning to `CC(=O)NBr`, the outcome was “inactive; negative”. For the compound `OC[C@@H](O)[C@@H](O)[C@H](O)[C@H](O)CO`, the outcome is “inactive; negative”. Take `CC/C(=C(/CC)c1ccc(O)cc1)c1ccc(O)cc1`: the outcome is “inactive; negative”.

Regarding `NC(=O)CC(N)=O`, the outcome is “inactive; negative”.

As to `C=CCOC(=O)COCCC(C)C`, the outcome is “inactive; negative”. On to `Nc1ccc(Cl)cc1N`, for which the outcome was “active; positive”. For the compound `CN(C)N=Nc1nc[nH]c1C(N)=O`, the outcome was “active; positive”. The value for `OCC#CCO` was “inactive; negative”; that for `Nc1nc(-c2ccccc2)cs1` was “active; positive”. As for `CCOP(=S)(OCC)Oc1ccc([N+](=O)[O-])cc1`, the outcome is “active; weakly positive”. Next, `O=[N+]([O-])c1ccccc1C(F)(F)F`: “inactive; negative”; `CC1(C)[C@@H]2CC[C@@]1(C)C(=O)C2`: “inactive; negative”. Take `Oc1ccccc1O`: the outcome is “inactive; negative”.

Consider `ICCc1ccccc1`, for which the outcome is “inactive; negative”.

Turning to `Cc1cccc([N+](=O)[O-])c1C`, the outcome was “active; positive”. Take `OCCBr`: the outcome was “active; positive”. Take `CCCCN1CCCCC1C(=O)Nc1c(C)cccc1C` (configuration not stated): the outcome was “inactive; negative”. On to `O=S(=O)(O)c1ccc(N=Nc2cc(S(=O)(=O)O)c3ccccc3c2O)c2ccccc12`, for which the outcome was “inactive; negative”. In the case of `COc1ccc(N)c(OC)c1`, the outcome was “active; positive”.

Turning to `Clc1ccc2c(c1)Oc1ccc(Cl)cc1O2`, the outcome was “inactive; negative”. On to `CCCCCCCC(=O)OCC(COC(=O)CCCCCCC)OC(=O)CCCCCCC`, for which the outcome was “active; positive”.

For `Cc1cc(-c2ccc(N=Nc3ccc4c(S(=O)(=O)O)cc(S(=O)(=O)O)c(N)c4c3O)c(C)c2)ccc1N=Nc1ccc2c(S(=O)(=O)O)cc(S(=O)(=O)O)c(N)c2c1O`, the outcome was “active; positive”. As to `CC(=O)c1ccc(Cl)c(Cl)c1Cl`, the outcome is “active; positive”.

In the case of `CCCCC(CC)COC(=O)c1ccc(N(C)C)cc1` (configuration not stated), the outcome was “inactive; negative”.

For `O=C1NC(=O)C(c2ccccc2)(c2ccccc2)N1`, the outcome is “inactive; negative”. The value for `C=CC(=C)C` was “inactive; negative”; that for `O=c1c(-c2ccc(O)cc2)coc2cc(O)cc(O)c12` was “active; positive”. As to `[O-]/[N+](=N\O)c1ccccc1`, the outcome was “active; positive”.

Take `COC(=O)c1ccccc1C(=O)OC`: the outcome is “inactive; negative”. In the case of `Cc1c(N)cccc1Cl`, the outcome was “inactive; negative”.

With `CC12CCC(C1)C(C)(C)C2=O` (configuration not stated), the outcome was “inactive; negative”. With `Cc1ccc(N)c(C)c1`, the outcome is “active; positive”. On to `O=C=Nc1ccc(N=C=O)cc1`, for which the outcome is “inactive; negative”. Next, `CC1(C)S[C@@H]2[C@H](NC(=O)[C@H](N)c3ccccc3)C(=O)N2[C@H]1C(=O)O`: “inactive; negative”. As for `CCOC(=O)c1ccccc1N`, the outcome is “inactive; negative”.

For the compound `OCc1ccccc1`, the outcome was “inactive; negative”.

`CC(C)CCC(C)Nc1ccc(NC(C)CCC(C)C)cc1` (configuration not stated): the outcome is “inactive; negative”. With `CC1=C(/C=C/C(C)=C/C=C/C(C)=C/C=O)C(C)(C)CCC1`, the outcome is “active; positive”. With `O=[N+]([O-])c1ccc2c3c(cccc13)CC2`, the outcome was “active; positive”. On to `C=CC(=O)NC(C)(C)CC(C)=O`, for which the outcome is “inactive; negative”. For the compound `ClC=CCl`, the outcome is “inactive; negative”. As for `CC(C)CCC[C@@H](C)[C@H]1CC[C@H]2[C@@H]3CC=C4C[C@@H](OC(=O)Cc5ccc(N(CCCl)CCCl)cc5)CC[C@]4(C)[C@H]3CC[C@]12C`, the outcome was “inactive; negative”. The value for `CCCNC(C)C(=O)Nc1ccccc1C` (configuration not stated) was “inactive; negative”; that for `S=C([S-])NCCNC(=S)[S-].[Zn+2]` was “inactive; negative”. On to `CN(C)c1nc(=O)n(C2CCCCC2)c(=O)n1C`, for which the outcome is “inactive; negative”. In the case of `O=[N+]([O-])c1cc(Cl)c(Cl)cc1Cl`, the outcome is “active; positive”. With `C1COC1`, the outcome was “active; positive”. Regarding `[CH3][Sn]([Cl])([Cl])[Cl]`, the outcome is “inactive; negative”. Turning to `CCOP(=O)(OCC)OCC`, the outcome is “inactive; negative”.

For the compound `CC(CC(=O)O)C(=O)O` (configuration not stated), the outcome is “inactive; negative”. `CC(=O)OCC(COC(C)=O)OC(C)=O`: the outcome is “inactive; negative”.

`CC1CNCC(C)O1` (configuration not stated): the outcome is “active; positive”. Next, `CCN(CC)c1ccc2c(C)cc(=O)oc2c1`: “inactive; negative”; `C#C[C@]1(O)CC[C@H]2[C@@H]3CCc4cc(O)ccc4[C@H]3CC[C@@]21C`: “inactive; negative”. On to `Cc1ccc(Cl)cc1N`, for which the outcome is “inactive; negative”.

On to `Oc1cc2c(cc1O)[C@@H]1c3ccc(O)c(O)c3OC[C@]1(O)C2`, for which the outcome was “inactive; negative”.

For the compound `OCC1CO1` (configuration not stated), the outcome was “active; positive”. `C[C@@H]1Cc2c(Cl)cc(C(=O)N[C@@H](Cc3ccccc3)C(=O)O)c(O)c2C(=O)O1`: the outcome was “inactive; negative”. For the compound `NC=O`, the outcome is “inactive; negative”. On to `O=S(=O)(O)c1ccc(N=Nc2c(O)ccc3cc(S(=O)(=O)O)ccc23)cc1`, for which the outcome was “inactive; negative”. As for `O=C(NC(S)c1nc2ccccc2s1)NC(S)c1nc2ccccc2s1` (configuration not stated), the outcome was “active; positive”. With `c1ccoc1`, the outcome is “active; weakly positive”. With `CCOC(=O)OCC`, the outcome is “inactive; negative”.

Turning to `ClC(Cl)(Cl)CC1CO1` (configuration not stated), the outcome is “active; positive”. Turning to `Clc1nc2ccccc2nc1Cl`, the outcome is “inactive; negative”. Next, `ClCCCCl`: “active; positive”; `CCCCC(CC)COCC1CO1` (configuration not stated): “active; positive”. With `CC(C)[C@]12CC(=O)[C@H](C)[C@H]1C2`, the outcome is “inactive; negative”. The value for `Cc1occc(=O)c1O` was “active; weakly positive”. `Cc1ccc2nc(-c3ccc(N)cc3)sc2c1`: the outcome was “active; positive”. Regarding `CC(C)CC(C)Nc1ccc(Nc2ccccc2)cc1` (configuration not stated), the outcome is “inactive; negative”.

With `Cc1ccccc1C(N)=O`, the outcome is “inactive; negative”. As for `CCCCC(=O)N(C)C`, the outcome was “inactive; negative”. For `CN(C)P(=O)(N(C)C)N(C)C`, the outcome was “inactive; negative”. In the case of `CCOCCOC(=O)C=Cc1ccc(OC)cc1`, the outcome is “inactive; negative”.

For `Nc1ccc(N)c2ccccc12`, the outcome is “active; positive”.

`CCCCCC(=O)OCC`: the outcome is “inactive; negative”. `CCNc1ccc([N+](=O)[O-])cc1C`: the outcome is “active; positive”.

In the case of `CCOc1ccc(N=Nc2ccc(-c3ccc(N=Nc4c(O)ccc5cc(S(=O)(=O)O)cc(S(=O)(=O)O)c45)c(C)c3)cc2C)cc1`, the outcome is “inactive; negative”. Turning to `COC(C)=O`, the outcome is “inactive; negative”. Next, `CN=c1ccc2nc3ccc(N)cc3sc-2c1`: “active; positive”; `Cc1cc(O)c2c(c1)C(=O)c1cc(O)cc(O)c1C2=O`: “active; positive”. `CC1CC(=O)O1` (configuration not stated): the outcome was “active; positive”.

As to `CC[C@H](CC[C@@H](C)[C@H]1CC[C@H]2[C@@H]3CC=C4C[C@@H](O)CC[C@]4(C)[C@H]3CC[C@]12C)C(C)C`, the outcome is “inactive; negative”. The value for `CC(O)CN(CC(C)O)CC(C)O` (configuration not stated) was “inactive; negative”. `CC(=O)Nc1cccc(O)c1`: the outcome is “inactive; negative”. As to `C[Si](C)(C)Cl`, the outcome was “active; weakly positive”. In the case of `N#Cc1c(Cl)c(Cl)c(Cl)c(C#N)c1Cl`, the outcome was “inactive; negative”. On to `Cc1cccc(C)c1N`, for which the outcome was “active; weakly positive”. In the case of `CN(C)c1ccc(Cc2ccc(N(C)C)cc2)cc1`, the outcome was “active; positive”.

Turning to `Cc1ccc2cccnc2c1`, the outcome is “active; positive”. Take `BrC(Br)Br`: the outcome is “active; positive”.

With `CC(C)(Cl)Cl`, the outcome was “inactive; negative”. With `c1ccc2c(c1)Nc1ccccc1S2`, the outcome is “inactive; negative”. Take `COc1cc(/C=C/C(=O)CC(=O)/C=C/c2ccc(O)c(OC)c2)ccc1O`: the outcome was “inactive; negative”.

Take `N#CSCSC#N`: the outcome is “inactive; negative”. Regarding `C[N+](C)(C)Cc1ccccc1`, the outcome was “inactive; negative”. Consider `Cc1cc(-c2ccc(N=Nc3cc(S(=O)(=O)O)c4ccccc4c3N)c(C)c2)ccc1N=Nc1cc(S(=O)(=O)O)c2ccccc2c1N`, for which the outcome was “inactive; negative”.

These data come from PubChem BioAssay AID2202554 (NIEHS Division of Translational Toxicology (DTT)).
